# Literature values in US11555007B2, “Compositions and methods for the treatment of neurological diseases” (Cellix Bio Private Limited, priority 2018, dated 2023).
# System: unipolar or bipolar patients in a major depressive episode
# Conditions: intravenous ketamine 0.5 mg/kg versus saline; all 8 treated patients
structure (smiles),measurement,value
"CNC1(c2ccccc2Cl)CCCCC1=O (stereo not shown) [ketamine, 2-(2-chlorophenyl)-2-(methylamino)cyclohexan-1-one]",improvement in depressive symptoms,significant improvement in depressive symptoms
